Reference: patent US6596772B1, “Phosphate mimics and methods of treatment using phosphatase inhibitors” (Sugen, Inc., priority 1999, dated 2003)
pIC50: −log10 of the molar value. Like-named read-outs stand apart in the source and are kept apart here.

Assays:
Experiment in all cases: PTP IC50 assay, fluorescent substrate DiFMUP
Type in all cases: biochemical
PTP SHP2 = target: T1, PTP SHP2 (Homo sapiens, UniProt Q06124); conditions: DiFMUP as substrate, 25° C.; read-out: PTP IC50 SHP2
T1 construct: The catalytic domain was amplified using the following oligonucleotides; made in house; host or cells: Sf-9 insect cells (pFastBac-G2T)
T1 sequence (Q06124 247-517 limits assumed): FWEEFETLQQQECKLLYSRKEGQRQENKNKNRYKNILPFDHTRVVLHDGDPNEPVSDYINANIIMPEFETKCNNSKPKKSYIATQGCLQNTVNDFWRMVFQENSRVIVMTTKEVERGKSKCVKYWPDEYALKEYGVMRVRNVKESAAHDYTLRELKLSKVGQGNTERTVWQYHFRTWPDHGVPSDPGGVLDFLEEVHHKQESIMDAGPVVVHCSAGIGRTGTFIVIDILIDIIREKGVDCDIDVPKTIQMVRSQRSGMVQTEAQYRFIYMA
Text: SHP-2 cDNA was used as described earlier (Vogel W., et al.,1993, Science, 259:1611-4). The catalytic domain was amplified using the following oligonucleotides 5′oligo: 5′-[…]-3′ (SEQ ID NO: 2) 3′oligo: 5′-[…]-3′ (SEQ ID NO: 3) and subsequently subcloned into BamH1-Xba-1 sites. It was then ligated into pfas Bac-G2T BamH1-Xba-1 sites.
(§1) The following in vitro assay procedure is preferred to determine the level of activity and effect of the different compounds of the present invention on one or more of the PTPs. Similar assays can be designed along the same lines for any PTP using techniques well known in the art.
(§2) The catalytic assays described herein are performed in a 96-well format. The general procedure begins with the determination of PTP optimal pH using a three-component buffer system that minimizes ionic strength variations across a wide range of buffer pH. Next, the Michaelis-Menten constant, or Km, is determined for the substrate 6,8-difluoro-4-methylumbelliferyl phosphate (DiFMUP). This Km value is subsequently used as the substrate reaction concentration for compound screening. Finally, the test PTP is exposed to varying concentrations of compound for fifteen minutes and allowed to react with substrate for ten minutes. The results are plotted as percent inhibition versus compound concentration and the IC50 interpolated from the plot.
(§3) All assays were performed using DiFMUP as substrate. The optimum pH and substrate Km was determined for each PTP used.
(§4) PTPase activity was assayed at 25° C. in a 100-μl reaction mixture containing an appropriate concentration of DiFMUP as substrate. The reaction was initiated by addition of the purified PTP and quenched after 10 min by addition of 1% H2O2/100 mM NaCl. The non-enzymatic hydrolysis of the substrate was corrected by measuring the control without the addition of the enzyme. The amount of DiFMU produced was determined from the increase in the fluorescence (360 nm excitation/460 nm emission) over that of background in the absence of PTPase. To determine the kinetic parameter, Km, the initial velocities were measured at various substrate concentrations and the data were fitted to the Michaelis equation where velocity=(Vmax*[S])/(Km+[S]), and [S]=substrate reaction concentration.
(§5) The effect of the compounds on PTP was evaluated at 25° C. using DiFMUP as substrate. PTP was pre-incubated for fifteen minutes with various concentrations of compound. Substrate was then added at a fixed concentration (usually equal to the Km previously calculated). After 10 minutes, the reaction was quenched. The hydrolysis of DiFMUP was followed as described above. The percent inhibition was calculated as follows: Percent Inhibition=[(control signal−compound signal)/control signal]×100%. The IC50 was then determined by interpolation of a percent inhibition versus compound concentration plot.
(§6) Plasmids designed for bacterial GST-PTP fusion protein expression were derived by insertion of PCR-generated human PTP fragments into pGEX vectors (Pharmacia Biotech). Several of these constructs were then used to subclone phosphatases into pFastBac-1 for expression in Sf-9 insect cells. Oligonucleotides used for the initial amplification of PTP genes are as described above. The cDNAs were prepared using the Gilbo BRL superscript preamplification system on RNAs purchased from Clontech.

PTP 1B = target: T2, PTP 1B (Homo sapiens, UniProt P18031)
T2 construct: made in house; host or cells: Sf-9 insect cells (pFastBac-G2T)
T2 sequence (P18031 1-435): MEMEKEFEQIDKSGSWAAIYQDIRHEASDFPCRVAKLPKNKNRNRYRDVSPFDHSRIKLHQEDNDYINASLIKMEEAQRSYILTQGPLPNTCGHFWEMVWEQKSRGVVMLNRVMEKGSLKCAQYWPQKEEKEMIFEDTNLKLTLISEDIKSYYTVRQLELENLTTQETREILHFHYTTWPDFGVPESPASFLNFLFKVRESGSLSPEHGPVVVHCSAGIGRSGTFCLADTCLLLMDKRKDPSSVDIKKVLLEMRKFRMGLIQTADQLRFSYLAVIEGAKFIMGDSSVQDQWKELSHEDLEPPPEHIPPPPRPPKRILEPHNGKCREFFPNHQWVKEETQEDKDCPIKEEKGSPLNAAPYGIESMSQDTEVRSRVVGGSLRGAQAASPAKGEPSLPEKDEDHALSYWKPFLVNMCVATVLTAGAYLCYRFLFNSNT
Text: The PTP1b cDNA was amplified from human placenta single strand cDNA (Clontech RNA) using the following oligonucleotides: 5′oligo: 5′-[…] (SEQ ID NO: 4) 3′oligo: 5′-[…] (SEQ ID NO: 5) It was subsequently ligated into pFasBac G2TBamH1Xba-1 sites.
as §1, §2, §3, §4, §5, §6

PTP EPSILON = target: T3, PTP EPSILON (Homo sapiens, UniProt P23469)
T3 construct: made in house; host or cells: Sf-9 insect cells (pFastBac-G2T); a pGEX 6P-1 construct also existed
T3 sequence (P23469 80-393 limits assumed): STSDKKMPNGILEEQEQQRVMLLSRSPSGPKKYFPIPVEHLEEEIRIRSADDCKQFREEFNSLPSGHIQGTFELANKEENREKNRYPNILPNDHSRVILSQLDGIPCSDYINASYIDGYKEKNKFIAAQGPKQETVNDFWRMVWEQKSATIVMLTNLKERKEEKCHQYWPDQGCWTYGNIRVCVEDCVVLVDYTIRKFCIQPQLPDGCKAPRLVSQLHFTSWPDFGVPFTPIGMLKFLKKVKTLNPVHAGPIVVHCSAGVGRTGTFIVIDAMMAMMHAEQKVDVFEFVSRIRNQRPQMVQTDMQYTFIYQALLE
Text: The PTPepsilon cDNA was amplified from human placenta single-strand cDNA (Clontech RNA) using the following oligonucleotides: 5′oligo: 5′-[…]-3′ (SEQ ID NO: 6) 3′oligo: 5′-[…]-3′ (SEQ ID NO: 7) After cloning this PCR product into the Bam HI/Xho I sites of pGEX 6P-1, this phosphatase was subcloned using the same restriction sites in pFastBac-G2T.
as §1, §2, §3, §4, §5, §6

[1] = DiFMUP as substrate, 25° C., read-out: PTP IC50 1B
[2] = DiFMUP as substrate, 25° C., read-out: PTP IC50 Epilson

Compound | pIC50 (PTP SHP2) | pIC50 (PTP 1B; [1]) | pIC50 (PTP EPSILON; [2]) | pIC50 (PTP 1B) | pIC50 (PTP EPSILON)
O=C(Cc1ccccc1CC(=O)Nc1ccc(S(=O)(=O)C(F)(F)F)cc1)Nc1ccc(S(=O)(=O)C(F)(F)F)cc1 [Example 32, N-(4-Trifluoromethanesulfonyl-phenyl)-2-{2-[(4-trifluoromethanesulfonyl-phenylcarbamoyl)-methyl]-phenyl}-acetamide] | 4.84 | 5.11 | 4.76 | – | –
CCn1c(-c2ccc(C(=O)OC)cc2)nc2cc(S(=O)(=O)C(F)(F)F)ccc21 [Example 35, 4-(1-Ethyl-5-trifluoromethanesulfonyl-1H-benzoimidazol-2-yl)-benzoic acid methyl ester] | 4.50 | – | 4.49 | – | –
CCn1c(-c2ccc(C(=O)O)cc2)nc2cc(S(=O)(=O)C(F)(F)F)ccc21 [Example 36, 4-(1-Ethyl-5-trifluoromethanesulfonyl-1H-benzoimidazol-2-yl)-benzoic acid] | 4.24 | < 4.70 | 4.21 | – | –
CCn1c(-c2ccc(C(=O)Nc3ccncc3)cc2)nc2cc(S(=O)(=O)C(F)(F)F)ccc21 [Example 37, 4-(1-Ethyl-5-trifluoromethanesulfonyl-1H-benzoimidazol-2-yl)-N-pyridin-4-yl-benzamide] | 4.72 | < 4.70 | 4.69 | – | –
CCOC(=O)CNC(=O)C(c1ccc(S(=O)(=O)C(F)(F)F)cc1)N(C)C(C)=O (centres unmarked) [Example 47, [2-(Acetyl-methyl-amino)-2-(4-trifluoromethanesulfonyl-phenyl)-acetylamino]-acetic acid ethyl ester] | < 4.00 | – | – | – | –
CCOC(=O)CNC(=O)C(c1ccc(S(=O)(=O)C(F)(F)F)cc1)N(C(=O)c1ccccc1)C1CCCCC1 (centres unmarked) [Example 48, [2-(Benzoyl-cyclohexyl-amino)-2-(4-trifluoromethanesulfonyl-phenyl)-acetylamino]-acetic acid ethyl ester] | 4.42 | 4.64 | – | – | –
O=[N+]([O-])c1cc(S(=O)(=O)C(F)(F)F)ccc1OCC(CN1CCCCC1)Oc1ccc(S(=O)(=O)C(F)(F)F)cc1[N+](=O)[O-] (centres unmarked) [Example 55, 1-[2,3-Bis-(2-nitro-4-trifluoromethanesulfonyl-phenoxy)-propyl]-piperidine] | 5.48 | – | 5.62 | – | –
O=[N+]([O-])c1ccccc1NCC(COc1ccc(S(=O)(=O)C(F)(F)F)cc1[N+](=O)[O-])Oc1ccc(S(=O)(=O)C(F)(F)F)cc1[N+](=O)[O-] (centres unmarked) [Example 57, [2,3-Bis-(2-nitro-4-trifluoromethanesulfonyl-phenoxy)-propyl]-(2-nitro-phenyl)-amine] | – | – | – | < 4.70 | 6.22
O=S(=O)(c1ccc(-c2ncc(-c3ccc4ccccc4c3)o2)cc1)C(F)F [Example 64, 2-[4-(Difluoro-methanesulfonyl)-phenyl]-5-naphthalen-2-yl-oxazole] | 5.23 | 5.27 | – | – | –
Cc1ccc(Nc2ccc(S(=O)(=O)C(F)(F)C(F)F)cc2[N+](=O)[O-])cc1 [Example 65, [2-Nitro-4-(1,1,2,2-tetrafluoro-ethanesulfonyl)-phenyl]-p-tolyl-amine] | 4.88 | 4.94 | – | – | –
Cc1cc2cc(NS(=O)(=O)C(F)(F)F)ccc2n1CC(=O)Nc1ccc(C(=O)O)cc1 [Example 85, 4-[2-(2-Methyl-5-trifluoromethanesulfonylamino-indol-1-yl)-acetylamino]-benzoic acid] | – | 4.76 | < 4.70 | – | –

Second part, led by results:

pIC50 (PTP SHP2) | pIC50 (PTP 1B; [1]) | pIC50 (PTP EPSILON; [2]) | Compound | pIC50 (PTP 1B) | pIC50 (PTP EPSILON)
5.64 | 5.64 | 4.69 | O=C(Cc1cccc(CC(=O)Nc2ccc(S(=O)(=O)C(F)(F)F)cc2)c1)Nc1ccc(S(=O)(=O)C(F)(F)F)cc1 [Example 33, N-(4-Trifluoromethanesulfonyl-phenyl)-2-{3-[(4-trifluoromethanesulfonyl-phenylcarbamoyl)-methyl]-phenyl}-acetamide] | – | –
5.64 | 5.41 | 5.04 | O=C(Cc1ccc(CC(=O)Nc2ccc(S(=O)(=O)C(F)(F)F)cc2)cc1)Nc1ccc(S(=O)(=O)C(F)(F)F)cc1 [Example 34, N-(4-Trifluoromethanesulfonyl-phenyl)-2-{4-[(4-trifluoromethanesulfonyl-phenylcarbamoyl)-methyl]-phenyl}-acetamide] | – | –
5.96 | 5.96 | 5.29 | CCn1c(-c2ccc(C(=O)Nc3ccc(OC)cc3)cc2)nc2cc(S(=O)(=O)C(F)(F)F)ccc21 [Example 38, 4-(1-Ethyl-5-trifluoromethanesulfonyl-1H-benzoimidazol-2-yl)-N-(4-methoxy-phenyl)-benzamide] | – | –
6.15 | < 4.70 | – | CCOC(=O)c1cc(Oc2ccc(S(=O)(=O)C(F)(F)F)cc2[N+](=O)[O-])c(C(=O)OCC)cc1Oc1ccc(S(=O)(=O)C(F)(F)F)cc1[N+](=O)[O-] [Example 54, 2,5-Bis-(2-nitro-4-trifluoromethanesulfonyl-phenoxy)-terephthalic acid diethyl ester] | – | –
5.54 | 5.32 | – | O=[N+]([O-])c1cc(S(=O)(=O)C(F)(F)F)ccc1OCC(CN1CCOCC1)Oc1ccc(S(=O)(=O)C(F)(F)F)cc1[N+](=O)[O-] (centres unmarked) [Example 56, 4-[2,3-Bis-(2-nitro-4-trifluoromethanesulfonyl-phenoxy)-propyl]-morpholine] | – | –
5.77 | – | 5.13 | NS(=O)(=O)c1ccc(NCC(O)COc2ccc(S(=O)(=O)C(F)(F)F)cc2[N+](=O)[O-])cc1 (centres unmarked) [Example 61, 4-[2-Hydroxy-3-(2-nitro-4-trifluoromethanesulfonyl-phenoxy)-propylamino]-benzenesulfonamide] | – | –
5.64 | – | 5.24 | NS(=O)(=O)c1ccc(NCC(COc2ccc(S(=O)(=O)C(F)(F)F)cc2[N+](=O)[O-])Oc2ccc(S(=O)(=O)C(F)(F)F)cc2[N+](=O)[O-])cc1 (centres unmarked) [Example 62, 4-[2,3-Bis-(2-nitro-4-trifluoromethanesulfonyl-phenoxy)-propylamino]-benzenesulfonamide] | – | –
